Data published in patent US8815535B2, “Disk diffusion assay for oritavancin” (The Medicines Company, priority 2011, dated 2014).
Read-outs that look alike come from different tables or passages of the source.

Legend:
Assay in all cases: Disk diffusion assay (zone of inhibition)
Format in all cases: cell-based
[1] = test system: MSSA ATCC 29213; settings: Staphylococcus aureus; for zone of inhibition at 360 µg/disc: 360 μg in 5% P80, read-out: Zone diameter (mm ± SD); for zone of inhibition at 180 µg/disc: MSSA ATCC 29213, 180 μg oritavancin in 2.5% P80, read-out: Zone diameter
Excerpt: (§1) The study was designed to identify conditions that improve oritavancin diffusion in agar and consequently yield a zone diameter ≧15 mm for the CLSI quality control strain MSSA ATCC 25923. Excipients that increased the disk diffusion of oritavancin in agar relative to disks containing only oritavancin were identified and selected for further study. […] A prediffusion step at room temperature was introduced to maximize oritavancin diffusion prior to initiation of bacterial growth. In this step, the antimicrobial disks were placed on agar plates seeded with a bacterial isolate and incubated at room temperature for 3 hours. Plates were then incubated overnight at 37° C. Zone diameters around the disks in which bacterial growth was inhibited were measured with a ruler and reported in millimeters.
(§2) Ethanol-sterilized Whatman paper disks (6 mm diameter) were allowed to dry then impregnated with 20 microliters of oritavancin solution containing total amounts ranging from 90 to 360 micrograms. Disks were allowed to dry at room temperature for various times prior to use.
(§3) Bacterial suspensions were prepared and adjusted to an optical density of 0.1 at 600 nm. Standard cation-adjusted Mueller Hinton agar plates (90 mm diameter) were seeded with bacterial suspensions by initially swabbing the center of plate then moving outward towards the edge. The plate was swabbed a second time, perpendicular to the orientation of the first swab. To assess the impact of prediffusion on diameter of inhibition zones, two disks were immediately placed on one half of the plate and the plate was incubated for 3 hours at room temperature. After 3 hours, two additional disks were placed on the other half of the plate then the plate was incubated overnight at 37° C. Zone diameters were measured with a ruler and reported in millimeters.
Oritavancin powder was dissolved in freshly-prepared solutions of the indicated excipients at concentrations of 0.625, 1.25, 2.5, 5, and 10 mg/ml (adjusted for potency based on lot 875561L00 purity of 83.1%) by vortexing for a minimum of 5 minutes. Oritavancin solutions in the various excipients, while not visually clear, were free from any apparent particulates as assessed visually. Sterile Oxoid blank disks were impregnated with 20 μl of these oritavancin solutions, resulting in oritavancin disk loads ranging from 12.5 to 200 μg. Unless indicated otherwise, disks were allowed to dry overnight at room temperature prior to use.
Bacterial suspensions from isolated colonies on overnight cation-adjusted Mueller Hinton agar plates were prepared in sterile saline and adjusted to an optical density of 0.1 at 600 nm Standard cation-adjusted Mueller Hinton agar plates (90 mm diameter) were seeded with bacterial suspensions by initially swabbing the center of plate then moving outward. Swabbing was continued at a right angle and then at an oblique angle to the first and second swabs. Disks were placed upon the seeded plates with sterile forceps. Plates were then incubated overnight at 37° C. and inhibition zone diameters were measured with a ruler and reported in millimeters.

[2] = test system: MRSA NRS121; settings: Staphylococcus aureus, read-out: Zone diameter (mm ± SD), NRS121, 360 μg in 5% P80
Excerpt: as §1, §2, §3

[3] = test system: MRSA NRS123-ORI^RS; settings: Staphylococcus aureus, read-out: Zone diameter (mm ± SD)
Excerpt: as §1, §2, §3

[4] = test system: MRSA NRS123; settings: Staphylococcus aureus; for zone of inhibition at 90 µg/disc: 90 μg oritavancin
Excerpt: as §1, §2, §3

CN[C@H](CC(C)C)C(=O)N[C@H]1C(=O)N[C@@H](CC(N)=O)C(=O)N[C@H]2C(=O)N[C@H]3C(=O)N[C@H](C(=O)N[C@H](C(=O)O)c4cc(O)cc(O)c4-c4cc3ccc4O)[C@H](O[C@H]3C[C@](C)(N)[C@@H](O)[C@H](C)O3)c3ccc(c(Cl)c3)Oc3cc2cc(c3O[C@@H]2O[C@H](CO)[C@@H](O)[C@H](O)[C@H]2O[C@H]2C[C@](C)(NCc3ccc(-c4ccc(Cl)cc4)cc3)[C@@H](O)[C@H](C)O2)Oc2ccc(cc2Cl)[C@H]1O [oritavancin, N-(4-(4-chlorophenyl)benzyl)A82846B]
zone of inhibition at 360 µg/disc ([1]; 336 h, ATCC 29213, Experiment 1, disks stored 14 days, no prediffusion): 15.8 ± 0.4 mm | zone of inhibition at 25 µg/disc ([1]; ATCC 29213, 25 μg (1.25 mg/ml) in 4% P80/Span 80 (1:1), dried overnight, read-out: Inhibition zone diameter): 24 mm | zone of inhibition at 360 µg/disc ([1]; ATCC 29213, Average, no prediffusion): 15.8 ± 0.4 mm | zone of inhibition at 360 µg/disc ([1]; ATCC 29213, Average, prediffusion): 18.3 ± 0.4 mm | zone of inhibition at 360 µg/disc ([1]; ATCC 29213, Experiment 1, disks stored 14 days, 3 h prediffusion at room temperature): 18.3 ± 0.4 mm | zone of inhibition at 180 µg/disc ([1]; 0% P80 in CAMHA, no prediffusion): 15.3 mm | zone of inhibition at 180 µg/disc ([1]; 0% P80 in CAMHA, prediffusion): 18.3 mm | zone of inhibition at 180 µg/disc ([1]; 1% P80 in CAMHA, no prediffusion): 15.3 mm | zone of inhibition at 180 µg/disc ([1]; 1% P80 in CAMHA, prediffusion): 18 mm | zone of inhibition at 360 µg/disc ([2]; 192 h, Experiment 2, disks stored 8 days, no prediffusion): 15 mm | zone of inhibition at 360 µg/disc ([2]; Average, no prediffusion): 15 mm | zone of inhibition at 360 µg/disc ([2]; Average, prediffusion): 17.3 ± 0.4 mm | zone of inhibition at 360 µg/disc ([2]; Experiment 2, disks stored 8 days, 3 h prediffusion at room temperature): 17.3 ± 0.4 mm | zone of inhibition at 360 µg/disc ([3]; 360 μg in 5% P80, Average, no prediffusion): 14 mm | zone of inhibition at 360 µg/disc ([3]; 360 μg in 5% P80, Average, prediffusion): 15 mm | zone of inhibition at 360 µg/disc ([3]; 360 μg in 5% P80, Experiment 2, disks stored 8 days, 3 h prediffusion at room temperature): 15 mm | zone of inhibition at 360 µg/disc ([3]; 192 h, 360 μg in 5% P80, Experiment 2, disks stored 8 days, no prediffusion): 14 mm | zone of inhibition at 360 µg/disc ([4]; 360 μg in 5% P80, Average of experiments, no prediffusion, read-out: Zone diameter (mm ± SD)): 16 ± 0.4 mm | zone of inhibition at 360 µg/disc ([4]; 360 μg in 5% P80, Average of experiments, prediffusion, read-out: Zone diameter (mm ± SD)): 18.8 ± 0.9 mm | zone of inhibition at 360 µg/disc ([4]; 360 μg in 5% P80, Experiment 1, disks stored 14 days, 3 h prediffusion at room temperature, read-out: Zone diameter (mm ± SD)): 19.5 mm | zone of inhibition at 360 µg/disc ([4]; 360 μg in 5% P80, Experiment 2, disks stored 8 days, 3 h prediffusion at room temperature, read-out: Zone diameter (mm ± SD)): 18 mm | zone of inhibition at 90 µg/disc ([4]; 192 h, 2.5% P80, disks stored 8 days, prediffusion, read-out: Average zone diameter): 15.8 mm | zone of inhibition at 180 µg/disc ([4]; 192 h, 180 μg oritavancin, 2.5% P80, disks stored 8 days, prediffusion, read-out: Average zone diameter): 16.5 mm | zone of inhibition at 360 µg/disc ([4]; 192 h, 360 μg in 5% P80, Experiment 2, disks stored 8 days, no prediffusion, read-out: Zone diameter (mm ± SD)): 15.8 ± 0.4 mm | zone of inhibition at 360 µg/disc ([4]; 192 h, 360 μg oritavancin, 2.5% P80, disks stored 8 days, prediffusion, read-out: Average zone diameter): 16.8 mm | zone of inhibition at 90 µg/disc ([4]; 336 h, 5% P80, disks stored 14 days, prediffusion, read-out: Average zone diameter): 16 mm
